Our source for the inhibition in vivo and inhibition values is ChEMBL document CHEMBL3046683, “Anti-inflammatory and analgesic activities of a new cucurbitacin isolated from Citrullus colocynthis seeds” (2013).

The structures appear in SMILES notation.

Assay [1] has as its system Rattus norvegicus. The assay is described as follows: Anti-inflammatory activity in Wistar Rattus norvegicus (rat) assessed as inhibition of carrageenan-induced paw edema at 0.5 mg/kg, ip administered 30 min prior to carrageenan-challenge measured at 2 hr by plethysmometric analysis relative to control. Conditions: route intraperitoneal. The format is functional.
For assay [2], the system named is Mus musculus. The assay is described as follows: Analgesic activity in Swiss albino Mus musculus (mouse) assessed as inhibition of acetic acid-induced writhing at 0.1 mg/kg, sc administered 30 min prior to acetic acid challenge measured for 30 min post acetic acid challenge relative to control. The format is functional. Particulars: route subcutaneous. Background: Writhing tests count abdominal constrictions after an irritant is injected.

The subject of assay [3] is Mus musculus. Kind of assay: Analgesic activity in Swiss albino Mus musculus (mouse) assessed as inhibition of acetic acid-induced writhing at 0.05 mg/kg, sc administered 30 min prior to acetic acid challenge measured for 30 min post acetic acid challenge relative to control. Type of assay: functional. Particulars: route subcutaneous.
The test system of assay [4] is Rattus norvegicus. The assay is described as follows: Anti-inflammatory activity in Wistar Rattus norvegicus (rat) assessed as inhibition of carrageenan-induced paw edema at 0.5 mg/kg, ip administered 30 min prior to carrageenan-challenge measured at 6 hr by plethysmometric analysis relative to control. Type of assay: functional. Conditions: route intraperitoneal. In general terms: Carrageenan injected into the paw causes an acute inflammation.

In assay [5] the test system is Mus musculus. The assay is described as follows: Analgesic activity in Swiss albino Mus musculus (mouse) assessed as inhibition of phenylbenzoquinone-induced writhing at 0.05 mg/kg, sc administered 30 min prior to acetic acid challenge measured for 30 min post phenylbenzoquinone challenge relative to control. Type of assay: functional. Particulars: route subcutaneous.

For assay [6], the system named is Rattus norvegicus. The assay is described as follows: Anti-inflammatory activity in ip dosed Wistar Rattus norvegicus (rat) assessed as inhibition of carrageenan-induced paw edema administered 30 min prior to carrageenan-challenge measured at 1 to 6 hr by plethysmometric analysis relative to control. Type of assay: functional, organism-based.
The subject of assay [7] is Rattus norvegicus. The assay is described as follows: Anti-inflammatory activity in Wistar Rattus norvegicus (rat) assessed as inhibition of carrageenan-induced paw edema at 0.1 mg/kg, ip administered 30 min prior to carrageenan-challenge measured at 3 hr by plethysmometric analysis relative to control. Conditions: route intraperitoneal. Type of assay: functional.
For assay [8], the system named is Mus musculus. The assay is described as follows: Analgesic activity in Swiss albino Mus musculus (mouse) assessed as inhibition of acetic acid-induced writhing at 0.5 mg/kg, sc administered 30 min prior to acetic acid challenge measured for 30 min post acetic acid challenge relative to control. Type of assay: functional. Conditions: route subcutaneous.
The subject of assay [9] is Rattus norvegicus. The assay is described as follows: Anti-inflammatory activity in Wistar Rattus norvegicus (rat) assessed as inhibition of carrageenan-induced paw edema at 0.1 mg/kg, ip administered 30 min prior to carrageenan-challenge measured at 2 hr by plethysmometric analysis relative to control. The format is functional. Particulars: route intraperitoneal.
Assay [10] deals with Mus musculus. The assay is described as follows: Analgesic activity in Swiss albino Mus musculus (mouse) assessed as inhibition of phenylbenzoquinone-induced writhing at 0.5 mg/kg, sc administered 30 min prior to acetic acid challenge measured for 30 min post phenylbenzoquinone challenge relative to control. Type of assay: functional. Conditions: route subcutaneous.
Assay [11] has as its system Rattus norvegicus. The assay is described as follows: Anti-inflammatory activity in Wistar Rattus norvegicus (rat) assessed as inhibition of carrageenan-induced paw edema at 0.5 mg/kg, ip administered 30 min prior to carrageenan-challenge measured at 1 hr by plethysmometric analysis relative to control. The format is functional. Particulars: route intraperitoneal.
For assay [12], the system named is Rattus norvegicus. Kind of assay: Anti-inflammatory activity in Wistar Rattus norvegicus (rat) assessed as inhibition of carrageenan-induced paw edema at 0.1 mg/kg, ip administered 30 min prior to carrageenan-challenge measured at 1 hr by plethysmometric analysis relative to control. The format is functional. Particulars: route intraperitoneal.
The test system of assay [13] is Rattus norvegicus. The assay is described as follows: Anti-inflammatory activity in Wistar Rattus norvegicus (rat) assessed as inhibition of carrageenan-induced paw edema at 0.5 mg/kg, ip administered 30 min prior to carrageenan-challenge measured at 5 hr by plethysmometric analysis relative to control. The format is functional. Particulars: route intraperitoneal.

The test system of assay [14] is Rattus norvegicus. Kind of assay: Anti-inflammatory activity in Wistar Rattus norvegicus (rat) assessed as inhibition of carrageenan-induced paw edema at 0.1 mg/kg, ip administered 30 min prior to carrageenan-challenge measured at 6 hr by plethysmometric analysis relative to control. Conditions: route intraperitoneal. Type of assay: functional.
For assay [15], the system named is Rattus norvegicus. Kind of assay: Anti-inflammatory activity in Wistar Rattus norvegicus (rat) assessed as inhibition of carrageenan-induced paw edema at 0.5 mg/kg, ip administered 30 min prior to carrageenan-challenge measured at 4 hr by plethysmometric analysis relative to control. Conditions: route intraperitoneal. The format is functional.
Assay [16] relates to Mus musculus. The assay is described as follows: Analgesic activity in Swiss albino Mus musculus (mouse) assessed as inhibition of phenylbenzoquinone-induced writhing at 0.1 mg/kg, sc administered 30 min prior to acetic acid challenge measured for 30 min post phenylbenzoquinone challenge relative to control. Particulars: route subcutaneous. Type of assay: functional.
Assay [17] deals with Rattus norvegicus. Kind of assay: Anti-inflammatory activity in Wistar Rattus norvegicus (rat) assessed as inhibition of carrageenan-induced paw edema at 0.5 mg/kg, ip administered 30 min prior to carrageenan-challenge measured at 3 hr by plethysmometric analysis relative to control. The format is functional. Particulars: route intraperitoneal.
Assay [18] has as its system Rattus norvegicus. The assay is described as follows: Anti-inflammatory activity in Wistar Rattus norvegicus (rat) assessed as inhibition of carrageenan-induced paw edema at 0.1 mg/kg, ip administered 30 min prior to carrageenan-challenge measured at 5 hr by plethysmometric analysis relative to control. Type of assay: functional. Conditions: route intraperitoneal.
Assay [19] deals with Rattus norvegicus. Kind of assay: Anti-inflammatory activity in Wistar Rattus norvegicus (rat) assessed as inhibition of carrageenan-induced paw edema at 0.1 mg/kg, ip administered 30 min prior to carrageenan-challenge measured at 4 hr by plethysmometric analysis relative to control. Type of assay: functional. Particulars: route intraperitoneal.
Assay [20] concerns Mus musculus. The assay is described as follows: Analgesic activity in sc dosed Swiss albino Mus musculus (mouse) assessed as inhibition of phenylbenzoquinone-induced writhing administered 30 min prior to acetic acid challenge measured for 30 min post phenylbenzoquinone challenge relative to control. The format is functional, organism-based.
For assay [21], the system named is Mus musculus. Kind of assay: Analgesic activity in sc dosed Swiss albino Mus musculus (mouse) assessed as inhibition of acetic acid-induced writhing administered 30 min prior to acetic acid challenge measured for 30 min post acetic acid challenge relative to control. The format is functional, organism-based.
Assay [22] concerns Rattus norvegicus. Kind of assay: Anti-inflammatory activity in Wistar Rattus norvegicus (rat) assessed as inhibition of carrageenan-induced paw edema at 1 mg/kg, ip administered 30 min prior to carrageenan-challenge measured at 4 hr by plethysmometric analysis relative to control. Particulars: route intraperitoneal. The format is functional.
Assay [23] has as its system Rattus norvegicus. Kind of assay: Anti-inflammatory activity in Wistar Rattus norvegicus (rat) assessed as inhibition of carrageenan-induced paw edema at 1 mg/kg, ip administered 30 min prior to carrageenan-challenge measured at 3 hr by plethysmometric analysis relative to control. Conditions: route intraperitoneal. The format is functional.
Assay [24] relates to Rattus norvegicus. The assay is described as follows: Anti-inflammatory activity in Wistar Rattus norvegicus (rat) assessed as inhibition of carrageenan-induced paw edema at 1 mg/kg, ip administered 30 min prior to carrageenan-challenge measured at 2 hr by plethysmometric analysis relative to control. Type of assay: functional. Particulars: route intraperitoneal.
Assay [25] concerns Rattus norvegicus. Kind of assay: Anti-inflammatory activity in Wistar Rattus norvegicus (rat) assessed as inhibition of carrageenan-induced paw edema at 1 mg/kg, ip administered 30 min prior to carrageenan-challenge measured at 5 hr by plethysmometric analysis relative to control. Type of assay: functional. Conditions: route intraperitoneal.
Assay [26] deals with Rattus norvegicus. The assay is described as follows: Anti-inflammatory activity in Wistar Rattus norvegicus (rat) assessed as inhibition of carrageenan-induced paw edema at 1 mg/kg, ip administered 30 min prior to carrageenan-challenge measured at 6 hr by plethysmometric analysis relative to control. Type of assay: functional. Conditions: route intraperitoneal.
For assay [27], the system named is Rattus norvegicus. The assay is described as follows: Anti-inflammatory activity in Wistar Rattus norvegicus (rat) assessed as inhibition of carrageenan-induced paw edema at 1 mg/kg, ip administered 30 min prior to carrageenan-challenge measured at 1 hr by plethysmometric analysis relative to control. Conditions: route intraperitoneal. Type of assay: functional.

The test system of assay [28] is Mus musculus. The assay is described as follows: Analgesic activity in Swiss albino Mus musculus (mouse) assessed as inhibition of acetic acid-induced writhing at 200 mg/kg, sc administered 30 min prior to acetic acid challenge measured for 30 min post acetic acid challenge relative to control. Type of assay: functional. Particulars: route subcutaneous.
Assay [29] relates to Mus musculus. The assay is described as follows: Analgesic activity in Swiss albino Mus musculus (mouse) assessed as inhibition of phenylbenzoquinone-induced writhing at 200 mg/kg, sc administered 30 min prior to acetic acid challenge measured for 30 min post phenylbenzoquinone challenge relative to control. The format is functional. Conditions: route subcutaneous.

For the compound `CC(C)(O)/C=C/C(=O)[C@](C)(O)[C@H]1[C@H](O)C[C@@]2(C)[C@@H]3CC=C4[C@@H](C=C(O[C@@H]5O[C@H](CO)[C@@H](O)[C@H](O)[C@H]5O)C(=O)C4(C)C)[C@]3(C)CC[C@]12C`, the inhibition in vivo (commonly the change of the read-out against control, counted positive when it falls) at 0.5 mg/kg in assay [1] is 40%; in assay [4] it was 84%; in [8], 92%; in assay [10], 89%; in [11] it was 38%; in assay [13], 84%. The inhibition in vivo at 0.5 mg/kg in assay [15] worked out at 80%; in assay [17], 58%. In addition, the inhibition in vivo at 0.1 mg/kg in assay [2] worked out at 88%; in assay [7], 40%; in assay [9], 13%; in assay [12] it was 12%; in assay [14], 73%; in assay [16], 84%. Moreover, the inhibition in vivo at 0.1 mg/kg in assay [18] stood at 72%; in assay [19] it was 60%. The inhibition in vivo at 0.05 mg/kg stood at 86% in assay [3] and 80% in assay [5]. In addition, the inhibition result in assay [6], in [20] and in assay [21] was “Dose-dependent effect” in each case.

For `C[C@@H]1C[C@H]2[C@@H]3CCC4=CC(=O)C=C[C@]4(C)[C@@]3(F)[C@@H](O)C[C@]2(C)[C@@]1(O)C(=O)CO` [DEXAMETHASONE], the inhibition in vivo at 1 mg/kg came to 71% in assay [22]; 45% in assay [23]; 33% in assay [24]; 87% in assay [25]; 89% in [26]; 29% in assay [27].

`CC(=O)Oc1ccccc1C(=O)O`: the inhibition in vivo at 200 mg/kg worked out at 62% in assay [28] and 60% in assay [29].
